Reference: publication PMC6799938, “Determinants of drug entry into the developing brain” (F1000Research, 2019)
Read-outs that look alike come from different tables or passages of the source.

Experiments:
[1] = Sprague Dawley, rat, in vivo
[2] = for Brain radioactivity level / CSF radioactivity level / Plasma radioactivity level: mean; for Brain/Plasma Ratio / CSF/Plasma Ratio: mean ± SD
Description: Animals. Sprague Dawley rats were supplied by the University of Melbourne Biological Research Facility and housed in groups of 2–4 (adult) or full litters per cage (25cm x 35cm x 25cm on Breeders Choice paper bedding, made from 99% recycled paper; it is biodegradable with no added chemicals), on a 12 h light/dark cycle with ad libitum access to food (dry pellets of a fixed formulation diet for laboratory rats and mice fortified with vitamins and minerals to meet the requirements of breeding animals after the diet is autoclaved or irradiated, supplied by Speciality Feeds, Western Australia) and water. Age groups investigated (at treatment completion) were time mated pregnant females at E19 (350-400g body weight), postnatal pups at P4 and non-pregnant female adults (175-230g body weight). E19 was chosen because this is a stage of development when adequate volumes of blood and CSF can be obtained for analysis from fetal rats without pooling ( [Dziegielewska et al., 1981]) and individual pups can be injected intraperitoneally while still inside the uterine horn and kept viable for periods of time. P4 was chosen because its stage of brain development is similar to that of very prematurely born but viable human infants of 22–24 weeks gestation ( [Clancy et al., 2001]). Animal numbers were based on previous experience of such experiments and were the minimum number required to detect a significant difference between groups at P <0.05.
Drug doses. Drug doses were selected based on use in clinical practice ( [Australian Medicines Handbook, 2019]) and adjusted for body weight.
Experimental procedure. In acute drug experiments, a single dose was injected that included traces of [ ^3H]-labelled drug (20µCi adults, 2µCi newborns). In chronic experiments, doses of unlabelled drug were given twice daily (09.00 and 17.00h) for four days before a final injection on the 5 ^th day identical to acute experiments. In passive marker experiments, all dosing was acute and contained only the [ ^3H]- or [ ^14C]-labelled compound (20µCi adults, 2µCi newborns).
In all experiments involving postnatal animals, injections were intraperitoneal (i.p.). In pregnant animals for fetal drug entry studies, the final injection of the radiolabelled marker was given intravenously (i.v.), as the peritoneal cavity required opening prior to the sampling period to gain access to the fetuses. For passive markers (L-glucose, sucrose and glycerol), fetal animals were individually injected i.p. while still within the uterine horn. All experiments took place between 09.00 and 15.00h. All pregnancy studies were completed with a single treatment group on one day. Postnatal groups were conducted with a single treatment group on one day or with the chronic group completed prior to the acute group.
Sample collection. Samples were collected 30 minutes after the final injection. This duration was chosen partly to limit any potential metabolism of the drugs and markers used but also to allow enough time for i.p. injected markers to reach the blood stream and, from there, to access the brain parenchyma across brain barriers, as well as to limit the CSF sink effect that could influence drug levels ( [Bito et al., 1966]). Thirty minutes is also within the half-life of these drugs ( [Adedoyin et al., 1987]; [Harrison & Gibaldi, 1976]; Lin & Levy, 1963). The other reason a 30-minute duration was chosen is that in the case of exposed fetal rat pups, it is difficult to maintain them in a reasonable physiological state for long periods due to deterioration of placental perfusion. Therefore, for comparative purposes, all studies were conducted at the same time.
For adult and newborn (P4) experiments, animals were terminally anaesthetized using inhaled isofluorane (IsoFlo 100% w/w, Abbott Laboratories).

[3] = choroid plexus (lateral ventricular), E19
[4] = choroid plexus (lateral ventricular), P4
[5] = choroid plexus (lateral ventricular), adult
[6] = E19 fetuses, acute, 30 min - […] after administration
[7] = E19 fetuses, acute, listed as cimetidine
[8] = E19 fetuses, chronic (twice daily over five days), 30 min - […] after final dose
[9] = P4, acute, 30 min, listed as cimetidine
[10] = P4, chronic i.p. (twice daily over five days), 30 min after final dose
[11] = adult, acute, 30 min, listed as cimetidine
[12] = adult, chronic i.p. (twice daily over five days), 30 min after final dose

CN/C(=N/CCSCc1nc[nH]c1C)NC#N [Cimetidine]
restriction of transfer by the placenta [1]: ~70%
abcc3 expression, fold change chronic vs acute (abcc3 (MRP3); brain cortex, E19): 0.81 fold
abcc3 expression, fold change chronic vs acute (abcc3 (MRP3); brain cortex, P4): 1.12 fold
abcc3 expression, fold change chronic vs acute (abcc3 (MRP3); brain cortex, adult): 1.18 fold
abcc3 expression, fold change chronic vs acute (abcc3 (MRP3); [3]): 1.46 fold
abcc3 expression, fold change chronic vs acute (abcc3 (MRP3); [4]): 1.05 fold
abcc3 expression, fold change chronic vs acute (abcc3 (MRP3); [5]): 1.12 fold
abcc3 expression, fold change chronic vs acute (abcc3 (MRP3); placenta, E19): 0.96 fold
abcg2 expression, fold change chronic vs acute (abcg2 (BCRP); brain cortex, E19): 0.80 fold
abcg2 expression, fold change chronic vs acute (abcg2 (BCRP); brain cortex, P4): 1.11 fold
abcg2 expression, fold change chronic vs acute (abcg2 (BCRP); brain cortex, adult): 0.98 fold
abcg2 expression, fold change chronic vs acute (abcg2 (BCRP); [3]): 1.01 fold
abcg2 expression, fold change chronic vs acute (abcg2 (BCRP); [4]): 0.73 fold
abcg2 expression, fold change chronic vs acute (abcg2 (BCRP); [5]): 0.91 fold
abcg2 expression, fold change chronic vs acute (abcg2 (BCRP); placenta, E19): 1.24 fold
abcc2 expression, fold change chronic vs acute (abcc2 (MRP2); brain cortex, E19): 0.96 fold
abcc2 expression, fold change chronic vs acute (abcc2 (MRP2); brain cortex, P4): ↓ 0.92 fold
abcc2 expression, fold change chronic vs acute (abcc2 (MRP2); brain cortex, adult): 1.00 fold
abcc2 expression, fold change chronic vs acute (abcc2 (MRP2); [3]): 1.19 fold
abcc2 expression, fold change chronic vs acute (abcc2 (MRP2); [4]): 1.04 fold
abcc2 expression, fold change chronic vs acute (abcc2 (MRP2); [5]): 0.86 fold
abcc2 expression, fold change chronic vs acute (abcc2 (MRP2); placenta, E19): *10.07 fold
transfer from maternal blood to fetal brain ([2]; E19, acute): 17%
Brain radioactivity level [2, 6]: 7.3 DPM/µg
CSF radioactivity level [2, 6]: 7.0 DPM/µl
Plasma radioactivity level [2, 6]: 13.0 DPM/µl
Brain/Plasma Ratio ([2]; E19 fetuses, acute): 56 ± 10%
CSF/Plasma Ratio ([2]; E19 fetuses, acute): 54 ± 11%
Brain/Plasma Ratio [2, 7]: 56%
CSF/Plasma Ratio [2, 7]: 54%
Brain radioactivity level [2, 8]: 8.8 DPM/µg
CSF radioactivity level [2, 8]: 8.4 DPM/µl
Plasma radioactivity level [2, 8]: 13.3 DPM/µl
Brain/Plasma Ratio ([2]; E19 fetuses, chronic): 65 ± 19%
CSF/Plasma Ratio ([2]; E19 fetuses, chronic): 63 ± 15%
Brain radioactivity level ([2]; P4, acute i.p., 30 min): 37.2 DPM/µg
CSF radioactivity level ([2]; P4, acute i.p., 30 min): 24.3 DPM/µl
Plasma radioactivity level ([2]; P4, acute i.p., 30 min): 310.9 DPM/µl
Brain/Plasma Ratio ([2]; P4, acute, 30 min): 12 ± 1%
CSF/Plasma Ratio ([2]; P4, acute, 30 min): 8 ± 1%
Brain/Plasma Ratio [2, 9]: 12%
CSF/Plasma Ratio [2, 9]: 8%
Brain radioactivity level [2, 10]: 45.7 DPM/µg
CSF radioactivity level [2, 10]: 27.8 DPM/µl
Plasma radioactivity level [2, 10]: 373.2 DPM/µl
Brain/Plasma Ratio ([2]; P4, chronic, 30 min): 12 ± 2%
CSF/Plasma Ratio ([2]; P4, chronic, 30 min): 7 ± 1%
transfer into maternal brain (brain/maternal blood) ([2]; acute): 13%
Brain radioactivity level ([2]; adult, acute i.p., 30 min): 6.2 DPM/µg
CSF radioactivity level ([2]; adult, acute i.p., 30 min): 6.0 DPM/µl
Plasma radioactivity level ([2]; adult, acute i.p., 30 min): 55.9 DPM/µl
Brain/Plasma Ratio ([2]; adult, acute, 30 min): 13 ± 5%
CSF/Plasma Ratio ([2]; adult, acute, 30 min): 12 ± 3%
Brain/Plasma Ratio [2, 11]: 13%
CSF/Plasma Ratio [2, 11]: 12%
Brain radioactivity level [2, 12]: 11.6 DPM/µg
CSF radioactivity level [2, 12]: 11.1 DPM/µl
Plasma radioactivity level [2, 12]: 90.7 DPM/µl
Brain/Plasma Ratio ([2]; adult, chronic, 30 min): 13 ± 1%
CSF/Plasma Ratio ([2]; adult, chronic, 30 min): 12 ± 1%
abcb1a expression, fold change chronic vs acute (abcb1a (PGP); brain cortex, E19): 0.93 fold
abcb1a expression, fold change chronic vs acute (abcb1a (PGP); brain cortex, P4): ↑ 1.23 fold
abcb1a expression, fold change chronic vs acute (abcb1a (PGP); brain cortex, adult): 1.06 fold
abcb1a expression, fold change chronic vs acute (abcb1a (PGP); [3]): 1.73 fold
abcb1a expression, fold change chronic vs acute (abcb1a (PGP); [4]): 1.72 fold
abcb1a expression, fold change chronic vs acute (abcb1a (PGP); [5]): 1.06 fold
abcb1a expression, fold change chronic vs acute (abcb1a (PGP); placenta, E19): 0.86 fold
abcc1 expression, fold change chronic vs acute (abcc1 (MRP1); brain cortex, E19): 1.00 fold
abcc1 expression, fold change chronic vs acute (abcc1 (MRP1); brain cortex, P4): 1.11 fold
abcc1 expression, fold change chronic vs acute (abcc1 (MRP1); brain cortex, adult): 1.20 fold
abcc1 expression, fold change chronic vs acute (abcc1 (MRP1); [3]): 1.28 fold
abcc1 expression, fold change chronic vs acute (abcc1 (MRP1); [4]): 0.96 fold
abcc1 expression, fold change chronic vs acute (abcc1 (MRP1); [5]): 1.06 fold
abcc5 expression, fold change chronic vs acute (abcc5 (MRP5); brain cortex, E19): 0.97 fold
abcc5 expression, fold change chronic vs acute (abcc5 (MRP5); brain cortex, P4): ↑ 1.24 fold
abcc5 expression, fold change chronic vs acute (abcc5 (MRP5); brain cortex, P4, listed as cimetidine): 1.24 fold
abcc5 expression, fold change chronic vs acute (abcc5 (MRP5); brain cortex, adult): 1.11 fold
abcc5 expression, fold change chronic vs acute (abcc5 (MRP5); [3]): 1.19 fold
abcc5 expression, fold change chronic vs acute (abcc5 (MRP5); [4]): 0.86 fold
abcc5 expression, fold change chronic vs acute (abcc5 (MRP5); [5]): 1.21 fold
abcc5 expression, fold change chronic vs acute (abcc5 (MRP5); placenta, E19): 1.14 fold
abcc4 expression, fold change chronic vs acute (abcc4 (MRP4); brain cortex, E19): 0.98 fold
abcc4 expression, fold change chronic vs acute (abcc4 (MRP4); brain cortex, P4): 1.18 fold
abcc4 expression, fold change chronic vs acute (abcc4 (MRP4); brain cortex, adult): 1.00 fold
abcc4 expression, fold change chronic vs acute (abcc4 (MRP4); [3]): 1.17 fold
abcc4 expression, fold change chronic vs acute (abcc4 (MRP4); [4]): 1.12 fold
abcc4 expression, fold change chronic vs acute (abcc4 (MRP4); [5]): ↑ 1.49 fold
abcc4 expression, fold change chronic vs acute (abcc4 (MRP4); placenta, E19): 0.69 fold
abcb1b expression, fold change chronic vs acute (abcb1b (PGP); brain cortex, E19): 1.09 fold
abcb1b expression, fold change chronic vs acute (abcb1b (PGP); brain cortex, P4): 1.03 fold
abcb1b expression, fold change chronic vs acute (abcb1b (PGP); brain cortex, adult): 0.87 fold
abcb1b expression, fold change chronic vs acute (abcb1b (PGP); [3]): 1.66 fold
abcb1b expression, fold change chronic vs acute (abcb1b (PGP); [4]): 1.00 fold
abcb1b expression, fold change chronic vs acute (abcb1b (PGP); [5]): 1.15 fold
abcb1b expression, fold change chronic vs acute (abcb1b (PGP); placenta, E19): 1.00 fold
